For experiment [1], the system named is rat constriction injury model. In words: rat chronic constriction injury model of neuropathic pain (cold allodynia). As to conditions: read-out: ED50 for reversal of cold allodynia. It is filed as in vivo. Here is the method:
The anti-pain effects of Compounds 1 and 2 are evaluated in a model for traumatic nerve injury. The specific model is the rat constriction injury model, a commonly accepted model for the evaluation of the potential of a compound to treat chronic neuropathic pain. The end point is whether a compound can reverse cold allodynia in rats following a neuropathic injury. MC may be used as the control.

The test system of experiment [2] is Chung model. In words: Chung model of neuropathic pain (L5/L6 spinal nerve ligation, tactile allodynia, von Frey filaments). It is filed as in vivo, rat. Conditions: 300 mg/kg per os, male Sabra rats. From the text: The potential of Compound 1 to serve as an anti-pain agent was studied in the Chung model (Kim, S. H. and Chung, J. M.). This model is known as a reliable model, predictive for human pain. (Kim, S. H. and Chung, J. M.). In this model, spinal nerves L5 and L6 of the rat are tightly ligated and cut in order to induce neuropathic pain. Male Sabra rats weighing 250-275 g were used throughout the study. Under xylazine-ketamine anesthesia, both the L5 and L6 spinal nerves of one side of the rat were tightly ligated and cut. Pain behavior was measured following operation in all groups using withdrawal latencies of the hind paw to mechanical stimulation with von Frey filaments (tactile allodynia). The mechanical sensitivity of the foot was quantified by the occurrence of foot withdrawal in response to normally innocuous mechanical stimuli. Eight different von Frey filaments ranging from 0.6 to 26 g were used.
The efficacy (antiallodynic effect) of the compound was evaluated (300 mg/kg, per os (oral)) in eight rats at days 7 and 14 postoperation in a double-blind randomized crossover manner. The testing included estimation of time of peak effect following drug administration and measurement of the ability of the compound to decrease tactile allodynia.

Experiment [3] concerns plasma protein extravasation. In words: migraine model of Moskowitz (plasma protein extravasation into the dura mater). It is filed as in vivo. As to conditions: control = 100. The text has this: Evaluation of the anti-headache effects of Compounds 1 and 2 are followed in the migraine model of Moskowitz (Suzzi, M. C. and Moskowitz, M. A.). In this model, neurogenic inflammation results in the leakage of plasma proteins into the dura matter (plasma protein extravasation), which can be quantified by measuring the leakage of radioactive albumin (Suzzi, M. C. and Moskowitz, M. A.).

Each structure is given as a SMILES string.

`CCCC(CCC)C(=O)NCC(N)=O` [Compound 1, N-(2-n-propylpentanoyl)glycinamide]: the 50% effective dose (ED50) in experiment [1] is < 500 mg/kg. Besides, the “Time of peak effect” value in experiment [2] (antiallodynic effect) was 60 min. The “Effect on tactile allodynia in comparison to vehicle” value in experiment [2] (days 7 and 14 postoperation, significant at 60 min (p=0.0207) and 120 min (p=0.0102)) was “reversed tactile allodynia”. The “Percent Extravasation Compared to Control” value in experiment [3] is <100.

In the case of `CC/C=C(\CCC)C(=O)NCC(N)=O` [Compound 2, N-(2-n-propylpent-2-enoyl)glycinamide], the 50% effective dose (ED50) in experiment [1] was < 500 mg/kg. The “Percent Extravasation Compared to Control” value in experiment [3] was <100.

The term ED50 denotes the dose at which the effect has come halfway, by size or by number of responders.

The values above are taken from patent publication US8288442B2, “Use of derivatives of valproic acid amides and 2-valproenic acid amides for the treatment or prevention of pain and/or headache disorders” (Yissum Research Development Company of The Hebrew …, priority 2000, dated 2012).
